Laboratory results reported in patent US9198913B2, “Nitroimidazooxazines and their uses in anti-tubercular therapy” (priority 2009, dated 2015).
≈ marks a conversion by molar mass, not a printed value.

Legend:
[1] = In vivo pharmacokinetics in mice; details: CD-1 mice, oral, 40 mg/kg; for Cmax / half-life / Kp: mouse; for Cmax / half-life: in vivo, plasma; for half-life: read-out: t½ (h) plasma (converted); for Kp: lung/plasma, read-out: AUC ratio (lung/plasma);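 on all read-outs here: plasma and lung samples quantified by LC-MS/MS, dosing as a suspension in aqueous carboxymethylcellulose with Tween 80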
[2] = Stability to human liver microsomes; assay type: in vitro ADME; details: 1 μM, 37° C., 60 min, pooled human liver microsomes;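 further: parent compound quantified by LC-MS/MS against an internal standard, duplicates averaged, expressed relative to the 0 min sample taken as 100%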
[3] = Water solubility (sonicated suspension, HPLC); assay type: physicochemical; details: in water; for solubility at 15 min: thermodynamic from solid;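 on all read-outs here: concentration in the clear supernatant quantified by HPLC peak area against a DMSO standard solution of the same compound, corrected for dilution and injection volume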
[4] = Stability to mouse liver microsomes; assay type: in vitro ADME; details: 1 μM, 37° C., 60 min, CD-1 mouse liver microsomes;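 further: analyte quantified by LC-MS/MS as ratio to internal standard peak area, mean of duplicates, 60 min value expressed relative to the 0 min level (100%)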

Row | Structure (SMILES) | melting point [°C] | AUC lung [1] [µg·h/mL] | Cmax [1] [ng/mL] | half-life [1] [h] | Kp [1] | Microsomes (% remaining, 1 h) Human [2] [%] | solubility at 15 min [3] [µg/mL] | Microsomes (% remaining, 1 h) Mouse [4] [%] | Solubility [3] [µg/mL]
1 | O=[N+]([O-])c1cn2c(n1)OC[C@@H](OCc1ccc(-c3ccc(F)cc3)nc1)C2 (hydrate or solvate) [Compound 5, (6S)-6-{[6-(4-Fluorophenyl)-3-pyridinyl]methoxy}-2-nitro-6,7-dihydro-5H-imidazo[2,1-b][1,3]oxazine] | 194 to 196 |  |  |  |  |  |  |  | 
2 | O=[N+]([O-])c1cn2c(n1)OC[C@@H](OCc1ccc(-c3ccc(OC(F)(F)F)cc3Cl)cc1)C2 [Compound 1, (6S)-6-{[2′-Chloro-4′-(trifluoromethoxy)[1,1′-biphenyl]-4-yl]methoxy}-2-nitro-6,7-dihydro-5H-imidazo[2,1-b][1,3]oxazine] | 80 to 82 | 3363 | 6800 | 19.9 | 17 | 91 | 0.66 (≈ 1.4 µM) | 86 | 
3 | O=[N+]([O-])c1cn2c(n1)OC[C@@H](OCc1ccc(-c3ccc(OC(F)(F)F)cc3)cc1)C2 [Compound 3, (6S)-2-Nitro-6-{[4′-(trifluoromethoxy)[1,1′-biphenyl]-4-yl]methoxy}-6,7-dihydro-5H-imidazo[2,1-b][1,3]oxazine] | 199 to 201 | 218 |  |  |  |  |  |  | 
4 | O=[N+]([O-])c1cn2c(n1)OC[C@@H](OCc1cnc(-c3ccc(OC(F)(F)F)cc3)cn1)C2 [Compound 4, (6S)-2-Nitro-6-({5-[4-(trifluoromethoxy)phenyl]-2-pyrazinyl}methoxy)-6,7-dihydro-5H-imidazo[2,1-b][1,3]oxazine] | 182 to 184 | >324 |  |  |  | 98 |  |  | 2.6 (≈ 5.95 µM)
5 | O=[N+]([O-])c1cn2c(n1)OC[C@@H](OCc1ccc(-c3ccc(F)cc3)nc1)C2 [Compound 5, (6S)-6-{[6-(4-Fluorophenyl)-3-pyridinyl]methoxy}-2-nitro-6,7-dihydro-5H-imidazo[2,1-b][1,3]oxazine] |  | 136 |  |  |  | 88 |  | 80 | 3.8 (≈ 10.3 µM)
6 | O=[N+]([O-])c1cn2c(n1)OC[C@@H](OCc1ccc(-c3ccc(OC(F)(F)F)cc3)nc1)C2 [Compound 6, (6S)-2-Nitro-6-({6-[4-(trifluoromethoxy)phenyl]-3-pyridinyl}methoxy)-6,7-dihydro-5H-imidazo[2,1-b][1,3]oxazine] |  | 81 | 12200 |  |  | 83 |  | 87 | 2.3 (≈ 5.27 µM)
7 | O=[N+]([O-])c1cn2c(n1)OC[C@@H](OCc1ccc(-c3ccc(OC(F)(F)F)cc3)cn1)C2 [Compound 7, (6S)-2-Nitro-6-({5-[4-(trifluoromethoxy)phenyl]-2-pyridinyl}methoxy)-6,7-dihydro-5H-imidazo[2,1-b][1,3]oxazine] | 157 to 159 | 427 | 25900 |  |  |  |  |  | 
8 | O=[N+]([O-])c1cn2c(n1)OC[C@@H](OCc1ccc(-c3ccc(C(F)(F)F)nc3)cc1)C2 [Compound 9, (6S)-2-Nitro-6-({4-[6-(trifluoromethyl)-3-pyridinyl]benzyl}oxy)-6,7-dihydro-5H-imidazo[2,1-b][1,3]oxazine] | 221 to 222 | 414 | 13500 |  | 1.9 | 86 |  |  | 1.0 (≈ 2.38 µM)
9 | O=[N+]([O-])c1cn2c(n1)OC[C@@H](OCc1ccn(-c3ccc(OC(F)(F)F)cc3)n1)C2 [Compound 10, (6S)-2-Nitro-6-({1-[4-(trifluoromethoxy)phenyl]-1H-pyrazol-3-yl}methoxy)-6,7-dihydro-5H-imidazo[2,1-b][1,3]oxazine] | 103 to 105 | 31.5 | 1510 | 2.4 | 3.5 | 87 |  | 67 | 
10 | O=[N+]([O-])c1cn2c(n1)OC[C@@H](Oc1ccc(-c3ccc(OC(F)(F)F)cc3)cc1)C2 [Compound 13, (6S)-2-Nitro-6-{[4′-(trifluoromethoxy)[1,1′-biphenyl]-4-yl]oxy}-6,7-dihydro-5H-imidazo[2,1-b][1,3]oxazine] | 210 | 347 |  | 38 | 3.4 |  | 3 (≈ 7.12 µM) |  | 
11 | O=[N+]([O-])c1cn2c(n1)OC[C@@H](OCc1ccc(-c3ccc(OC(F)(F)F)cc3)c(F)c1)C2 [Compound 15, (6S)-6-{[2-Fluoro-4′-(trifluoromethoxy)[1,1′-biphenyl]-4-yl]methoxy}-2-nitro-6,7-dihydro-5H-imidazo[2,1-b][1,3]oxazine] | 181 to 183 |  |  |  |  |  | 0.33 (≈ 0.728 µM) |  | 
12 | O=[N+]([O-])c1cn2c(n1)OC[C@@H](OCc1ccc(Cc3ccc(OC(F)(F)F)cc3)cc1)C2 [Compound 17, (6S)-2-Nitro-6-({4-[4-(trifluoromethoxy)benzyl]benzyl}oxy)-6,7-dihydro-5H-imidazo[2,1-b][1,3]oxazine] | 132 to 133 |  |  |  |  | 85 | 0.16 (≈ 0.356 µM) | 70 | 
13 | O=[N+]([O-])c1cn2c(n1)OC[C@@H](OCc1ccc(C#Cc3ccc(OC(F)(F)F)cc3)cn1)C2 [Compound 18, (6S)-2-Nitro-6-[(5-{[4-(trifluoromethoxy)phenyl]ethynyl}-2-pyridinyl)methoxy]-6,7-dihydro-5H-imidazo[2,1-b][1,3]oxazine] | 207 to 208 | 235 | 2360 | 23.5 | 2.5 |  | 0.36 (≈ 0.782 µM) |  | 
14 | O=[N+]([O-])c1cn2c(n1)OC[C@@H](OC/C=C/c1ccc(-c3ccc(OC(F)(F)F)cc3)cc1)C2 [Compound 19, (6S)-2-Nitro-6-({(2E)-3-[4′-(trifluoromethoxy)[1,1′-biphenyl]-4-yl]-2-propenyl}oxy)-6,7-dihydro-5H-imidazo[2,1-b][1,3]oxazine] | 220 to 221 |  |  |  |  | 100 |  | 95 | 0.50 (≈ 1.08 µM)
15 | O=[N+]([O-])c1cn2c(n1)OC[C@@H](OCc1ccc(-c3ccc(OC(F)(F)F)c(F)c3)nc1)C2 [Compound 21, (6S)-6-({6-[3-Fluoro-4-(trifluoromethoxy)phenyl]-3-pyridinyl}methoxy)-2-nitro-6,7-dihydro-5H-imidazo[2,1-b][1,3]oxazine] |  | 251 |  | 13.9 | 1.4 | 100 |  | 90 | 3.0 (≈ 6.6 µM)
16 | O=[N+]([O-])c1cn2c(n1)OC[C@@H](OCc1ccc(C#Cc3ccc(C(F)(F)F)nc3)cn1)C2 [Compound 25, (6S)-2-Nitro-6-[(5-{[6-(trifluoromethyl)-3-pyridinyl]ethynyl}-2-pyridinyl)methoxy]-6,7-dihydro-5H-imidazo[2,1-b][1,3]oxazine] | 226 to 227 |  |  |  |  | 88 |  | 91 | 
17 | O=[N+]([O-])c1cn2c(n1)OC[C@@H](OCc1ccc(-c3ccc(F)cn3)cc1)C2 [Compound 26, (6S)-6-{[4-(5-Fluoro-2-pyridinyl)benzyl]oxy}-2-nitro-6,7-dihydro-5H-imidazo[2,1-b][1,3]oxazine] | 180 to 181 |  |  |  |  | 83 |  | 61 | 67 (≈ 181 µM)
18 | O=[N+]([O-])c1cn2c(n1)OC[C@@H](OCc1cnn(-c3ccc(OC(F)(F)F)cc3)c1)C2 [Compound 27, (6S)-2-Nitro-6-({1-[4-(trifluoromethoxy)phenyl]-1H-pyrazol-4-yl}methoxy)-6,7-dihydro-5H-imidazo[2,1-b][1,3]oxazine] | 150 to 151 |  |  |  |  | 87 |  | 64 | 
19 | O=[N+]([O-])c1cn2c(n1)OC[C@@H](OCc1ncc(-c3ccc(OC(F)(F)F)cc3)cn1)C2 [Compound 29, (6S)-2-Nitro-6-({5-[4-(trifluoromethoxy)phenyl]-2-pyrimidinyl}methoxy)-6,7-dihydro-5H-imidazo[2,1-b][1,3]oxazine] | 223 to 226 |  |  |  |  | 92 |  | 87 | 8.1 (≈ 18.5 µM)
20 | O=[N+]([O-])c1cn2c(n1)OC[C@@H](OCc1ccc(/C=C/c3ccc(OC(F)(F)F)cc3)cc1)C2 [Compound 31, (6S)-2-Nitro-6-[(4-{(E)-2-[4-(trifluoromethoxy)phenyl]ethenyl}benzyl)oxy]-6,7-dihydro-5H-imidazo[2,1-b][1,3]oxazine] | 228 to 230 |  |  |  |  | 99 |  | 98 | 
21 | O=[N+]([O-])c1cn2c(n1)OC[C@@H](OCc1ccc(C#Cc3ccc(OC(F)(F)F)cc3)cc1)C2 [Compound 32, (6S)-2-Nitro-6-[(4-{[4-(trifluoromethoxy)phenyl]ethynyl}benzyl)oxy]-6,7-dihydro-5H-imidazo[2,1-b][1,3]oxazine] | 233 to 236 |  |  |  |  |  |  |  | 
22 | O=[N+]([O-])c1cn2c(n1)OC[C@@H](OCc1ccc(C#Cc3ccc(OC(F)(F)F)cc3)nc1)C2 [Compound 33, (6S)-2-Nitro-6-[(6-{[4-(trifluoromethoxy)phenyl]ethynyl}-3-pyridinyl)methoxy]-6,7-dihydro-5H-imidazo[2,1-b][1,3]oxazine] | 235 to 238 |  |  |  |  |  |  |  | 
